Laboratory results reported in US20230219904A1 (SYNGENTA CROP PROTECTION AG, priority 2020, published 2023).

Experiments:
Format in all cases: in vivo
[1] = system: Ipomoea hederacea (IPOHE); assay: Pre-emergence herbicidal glasshouse test (Table B1); conditions: evaluated after 13 days
Method: (§1) Seeds of a variety of test species are sown in standard soil in pots (Lolium perenne (LOLPE), Amaranthus retoflexus (AMARE), Abutilon theophrasti (ABUTH), Setaria faberi (SETFA), Echinochloa crus-galh (ECHCG), Ipomoea hederacea (IPOHE)). After cultivation for one day (pre-emergence) or after 8 days cultivation (post-emergence) under controlled conditions in a glasshouse (at 24/16° C., day/night; 14 hours light; 65% humidity), the plants are sprayed with an aqueous spray solution derived from the formulation of the technical active ingredient in acetone/water (50:50) solution containing 0.5% Tween 20 (polyoxyethelyene sorbitan monolaurate, CAS RN 9005-64-5). Compounds are applied at 500 g/h unless otherwise indicated. The test plants are then grown in a glasshouse under controlled conditions in a glasshouse (at 24/16° C., day/night; 14 hours light; 65% humidity) and watered twice daily. After 13 days for pre and post-emergence, the test is evaluated for the percentage damage caused to the plant. The biological activities are shown in the following table on a five-point scale (5=80-100%; 4=60-79%; 3=40-59%; 2=20-39%; 1=0-19%).

[2] = system: Amaranthus retoflexus (AMARE); assay: as above; conditions: evaluated after 13 days
Method: as §1

Setaria faberi (SETFA) [3] = assay: as above; conditions: evaluated after 13 days
Method: as §1

[4] = system: Abutilon theophrasti (ABUTH); assay: as above; conditions: evaluated after 13 days
Method: as §1

[5] = system: Echinochloa crus-galh (ECHCG); assay: as above; conditions: evaluated after 13 days
Method: as §1

[6] = system: Ipomoea hederacea (IPOHE); assay: Post-emergence herbicidal glasshouse test (Table B1); conditions: evaluated after 13 days
Method: as §1

[7] = system: Amaranthus retoflexus (AMARE); assay: as above; conditions: evaluated after 13 days
Method: as §1

Setaria faberi (SETFA) [8] = assay: as above; conditions: evaluated after 13 days
Method: as §1

[9] = system: Echinochloa crus-galh (ECHCG); assay: as above; conditions: applied at 125 g/ha, evaluated after 13 days
Method: as §1

Structure (SMILES)	PRE Application IPOHE, percentage damage on five-point scale ([1]; applied at 125 g/ha)	PRE Application AMARE, percentage damage on five-point scale ([2]; applied at 125 g/ha)	PRE Application SETFA, percentage damage on five-point scale (Setaria faberi (SETFA) [3]; applied at 125 g/ha)	PRE Application ABUTH, percentage damage on five-point scale ([4]; applied at 125 g/ha)	PRE Application ECHCG, percentage damage on five-point scale ([5]; applied at 125 g/ha)	POST Application IPOHE, percentage damage on five-point scale ([6]; applied at 125 g/ha)	POST Application AMARE, percentage damage on five-point scale ([7]; applied at 125 g/ha)	POST Application SETFA, percentage damage on five-point scale (Setaria faberi (SETFA) [8]; applied at 125 g/ha)	POST Application ECHCG, percentage damage on five-point scale [9]	PRE Application IPOHE, percentage damage on five-point scale ([1]; applied)	PRE Application AMARE, percentage damage on five-point scale ([2]; applied at 500 g/h)	PRE Application SETFA, percentage damage on five-point scale (Setaria faberi (SETFA) [3]; applied at 500 g/h)	PRE Application ABUTH, percentage damage on five-point scale ([4]; applied at 500 g/h)	PRE Application ECHCG, percentage damage on five-point scale ([5]; applied at 500 g/h)	POST Application IPOHE, percentage damage on five-point scale ([6]; applied at 500 g/h)	POST Application AMARE, percentage damage on five-point scale ([7]; applied at 500 g/h)	POST Application SETFA, percentage damage on five-point scale (Setaria faberi (SETFA) [8]; applied at 500 g/h)
Cc1nc(C(=O)Nc2c(OC(F)F)ccc(C(=O)Nc3nnnn3C)c2Cl)cs1 [Compound 1.038]	5 (5=80-100%)	5 (5=80-100%)	4 (4=60-79%)	5 (5=80-100%)	5 (5=80-100%)	4 (4=60-79%)	4 (4=60-79%)	4 (4=60-79%)									
Cn1nnnc1NC(=O)c1ccc(OC(F)F)c(NC(=O)c2cc(Cl)sc2Cl)c1Cl [Compound 1.041]	2 (2=20-39%)	2 (2=20-39%)	2 (2=20-39%)	5 (5=80-100%)	3 (3=40-59%)	3 (3=40-59%)	3 (3=40-59%)	3 (3=40-59%)									
Cc1nc(C)c(C(=O)Nc2c(OC(F)F)ccc(C(=O)Nc3nnnn3C)c2Cl)s1 [Compound 1.042]	5 (5=80-100%)	5 (5=80-100%)	5 (5=80-100%)	4 (4=60-79%)	5 (5=80-100%)	5 (5=80-100%)	5 (5=80-100%)	5 (5=80-100%)	5 (5=80-100%)								
Cn1cc(C(=O)Nc2c(OC(F)(F)F)ccc(C(=O)Nc3nnnn3C)c2Cl)c(C(F)F)n1 [Compound 1.045]	4 (4=60-79%)	5 (5=80-100%)	5 (5=80-100%)	5 (5=80-100%)	5 (5=80-100%)	4 (4=60-79%)	5 (5=80-100%)	5 (5=80-100%)	5 (5=80-100%)								
Cc1cc(C(=O)Nc2c(OC(F)(F)F)ccc(C(=O)Nc3nnnn3C)c2Cl)nn1C [Compound 1.046]	5 (5=80-100%)	5 (5=80-100%)	5 (5=80-100%)	5 (5=80-100%)	5 (5=80-100%)	5 (5=80-100%)	5 (5=80-100%)	5 (5=80-100%)	5 (5=80-100%)								
Cc1c(C(F)F)c(C(=O)Nc2c(OC(F)F)ccc(C(=O)Nc3nnnn3C)c2Cl)nn1C [Compound 1.052]	4 (4=60-79%)	5 (5=80-100%)	5 (5=80-100%)	5 (5=80-100%)	5 (5=80-100%)	4 (4=60-79%)	5 (5=80-100%)	5 (5=80-100%)	4 (4=60-79%)								
COc1ccccc1C(=O)Nc1c(OC(F)(F)F)ccc(C(=O)Nc2nnnn2C)c1Cl [Compound 1.056]		3 (3=40-59%)	3 (3=40-59%)	5 (5=80-100%)	1 (1=0-19%)	4 (4=60-79%)	4 (4=60-79%)	4 (4=60-79%)	4 (4=60-79%)								
Cn1nnnc1NC(=O)c1ccc(OC(F)(F)F)c(NC(=O)C(C)(F)F)c1Cl [Compound 1.061]	3 (3=40-59%)	5 (5=80-100%)	3 (3=40-59%)		3 (3=40-59%)	4 (4=60-79%)	5 (5=80-100%)	5 (5=80-100%)	4 (4=60-79%)								
CCCOCC(=O)Nc1c(OC(F)(F)F)ccc(C(=O)Nc2nnnn2C)c1Cl [Compound 1.062]	4 (4=60-79%)	5 (5=80-100%)	3 (3=40-59%)		2 (2=20-39%)	4 (4=60-79%)	5 (5=80-100%)	5 (5=80-100%)	4 (4=60-79%)								
CC(C)OCC(=O)Nc1c(OC(F)(F)F)ccc(C(=O)Nc2nnnn2C)c1Cl [Compound 1.064]	4 (4=60-79%)	5 (5=80-100%)	4 (4=60-79%)	5 (5=80-100%)	3 (3=40-59%)	4 (4=60-79%)	4 (4=60-79%)	4 (4=60-79%)									
CCOCC(=O)Nc1c(OC(F)(F)F)ccc(C(=O)Nc2nnnn2C)c1Cl [Compound 1.066]	5 (5=80-100%)	5 (5=80-100%)	4 (4=60-79%)	5 (5=80-100%)	5 (5=80-100%)	4 (4=60-79%)	4 (4=60-79%)	4 (4=60-79%)									
CCn1nnnc1NC(=O)c1ccc(OC(F)(F)F)c(NC(=O)CC(F)(F)F)c1Cl [Compound 1.068]	3 (3=40-59%)	5 (5=80-100%)	5 (5=80-100%)	5 (5=80-100%)	5 (5=80-100%)	4 (4=60-79%)	4 (4=60-79%)	5 (5=80-100%)									
CCn1nnnc1NC(=O)c1ccc(OC(F)F)c(NC(=O)c2cc(OC)ccn2)c1Cl [Compound 1.080]	2 (2=20-39%)	4 (4=60-79%)	1 (1=0-19%)	1 (1=0-19%)	1 (1=0-19%)	4 (4=60-79%)	4 (4=60-79%)	4 (4=60-79%)									
Cn1nnnc1NC(=O)c1ccc(OC(F)F)c(NC(=O)c2ncccc2Cl)c1Cl [Compound 1.092]	3 (3=40-59%)	5 (5=80-100%)	5 (5=80-100%)	5 (5=80-100%)		4 (4=60-79%)	3 (3=40-59%)	4 (4=60-79%)									
CCC(=O)Nc1c(OC(F)(F)C(F)F)ccc(C(=O)Nc2nnnn2C)c1Cl [Compound 1.109]										5 (5=80-100%)	5 (5=80-100%)	4 (4=60-79%)	5 (5=80-100%)	4 (4=60-79%)	5 (5=80-100%)	5 (5=80-100%)	5 (5=80-100%)
